What was measured:
duck salad = assay: Test B flooded paddy test; type: in vivo, Heteranthera limosa; settings: Flood, 250 g ai/ha, 13 to 15 days; scale 0 to 100, 0 no effect, 100 complete control
Text: At time of treatment, test pots were flooded to 3 cm above the soil surface, treated by application of test compounds directly to the paddy water, and then maintained at that water depth for the duration of the test. Treated plants and controls were maintained in a greenhouse for 13 to 15 days, after which time all species were compared to controls and visually evaluated. […] A dash (-) response means no test result.

windgrass [1] = assay: Test D preemergence test; type: in vivo, Apera spica-venti; settings: scale 0 to 100
Text: Seeds of plant species selected from annual bluegrass (Poa annua), blackgrass (Alopecurus myosuroides), downy bromegrass (Bromus tectorum), field violet (Viola arvensis), green foxtail (Setaria viridis), Italian ryegrass (Lolium multiflorum), littleseed canarygrass (Phalaris minor), spring wheat (Triticum aestivum), wild oat (Avena fatua), […]), winter barley (Hordeum vulgare), and winter wheat (Triticum aestivum) were planted and treated preemergence with test chemicals formulated in a non-phytotoxic solvent mixture which included a surfactant. […] A dash (-) response means no test result.

Russian thistle = assay: Test F preemergence test; type: in vivo, Salsola kali; settings: scale 0 to 100
Text: Seeds of plant species selected from bermudagrass (Cynodon dactylon), Surinam grass (Brachiaria decumbens), large crabgrass (Digitaria sanguinalis), green foxtail (Setaria viridis), goosegrass (Eleusine indica), johnsongrass (Sorghum halepense), kochia (Kochia scoparia), pitted morningglory (Ipomoea lacunosa), purple nutsedge (Cyperus rotundus), common ragweed (Ambrosia elation), mustard (Brassica nigra), guineagrass (Panicum maximum), […] (Paspalum dilatatum), barnyardgrass (Echinochloa crus-galli), southern sandbur (Cenchrus echinatus), common sowthistle (Sonchus oleraceous), prickly […] spinosa), Italian ryegrass (Lolium multiflorum), common purslane (Portulaca oleracea), broadleaf signalgrass (Brachiaria platyphylla), common groundsel (Senecio vulgaris), common chickweed (Stellaria media), Virginia dayflower (Commelina virginica), annual bluegrass (Poa annua), naked crabgrass (Digitaria nuda), […] cochinchinensis), quackgrass (Elytrigia repens), Canada horseweed (Conyza canadensis), field bindweed (Convolvulus arvensis), […] (Bidens bipinnata), common mallow (Malva sylvestris), Russian thistle (Salsola kali), and sugarcane (Saccharum officinarum) were planted and treated preemergence with test chemicals formulated in a non-phytotoxic solvent mixture which included a surfactant. At a different time, sugarcane was treated with postemergence applications of some of the test chemicals formulated in the same manner. Plants were approximately 3- to 4-leaf stage for the postemergence treatments. Treated plants and controls were maintained in a greenhouse for 14 to 21 days, after which time all species were compared to controls and visually evaluated. […] A dash (-) response means no test result.

common chickweed = assay: Test F preemergence test; type: in vivo, Stellaria media; settings: scale 0 to 100
Summary of the method: (§1)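 Test chemicals in a non-phytotoxic solvent mixture containing a surfactant were applied preemergence to sown seeds or postemergence to sugarcane plants. Treated plants and controls were held in a greenhouse for 14 to 21 days, then visually evaluated against controls.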

soybean = assay: Test G preemergence test; type: in vivo, Glycine max; settings: scale 0 to 100
common sowthistle = assay: Test F preemergence test; type: in vivo, Sonchus oleraceous; settings: scale 0 to 100
Summary of the method: as §1

Canada horseweed = assay: Test F preemergence test; type: in vivo, Conyza canadensis; settings: scale 0 to 100
Summary of the method: as §1

windgrass [2] = assay: Test C pre-/postemergence test; type: in vivo, Apera spica-venti; settings: Postemergence; for Plant response rating, Windgrass: scale 0 to 100, 0 no effect, 100 complete control
chickweed = assay: Test C postemergence test; type: in vivo, Stellaria media; settings: for Plant response rating (0 to 100), Chickweed: 31 g ai/ha; for Plant response rating, Chickweed: scale 0 to 100, 0 no effect, 100 complete control
Summary of the method: (§2)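 Postemergence sprays of formulated test chemicals on plants 2 to 18 cm tall (1- to 4-leaf stage). Greenhouse hold for 13 to 15 days, then visual rating of each species against untreated controls; dash means no test result.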

winter barley = assay: Test C postemergence test; type: in vivo, Hordeum vulgare; settings: for Plant response rating (0 to 100), Barley: 31 g ai/ha; for Plant response rating, Barley: scale 0 to 100, 0 no effect, 100 complete control
Summary of the method: as §2

canarygrass = assay: Test C postemergence test; type: in vivo, Phalaris minor; settings: for Plant response rating (0 to 100), Canarygrass: 31 g ai/ha; for Plant response rating, Canarygrass: scale 0 to 100, 0 no effect, 100 complete control
Summary of the method: as §2

SMILES | Plant response rating, Ducksalad (duck salad) | Plant response rating, Windgrass (windgrass [1]; 31 g ai/ha) | Plant response rating, Windgrass (windgrass [1]; 62 g ai/ha) | Plant response rating, Windgrass (windgrass [1]; 125 g ai/ha) | Plant response rating, Windgrass (windgrass [1]; 250 g ai/ha) | Plant response rating, Russian Thistle (Russian thistle; 8 g ai/ha, preemergence) | Plant response rating, Russian Thistle (Russian thistle; Preemergence, 16 g ai/ha) | Plant response rating, Russian Thistle (Russian thistle; Preemergence, 31 g ai/ha) | Plant response rating, Chickweed (common chickweed; 8 g ai/ha, preemergence) | Chickweed plant response rating (common chickweed; 62 g ai/ha, Preemergence) | Plant response rating, Chickweed (common chickweed; Preemergence, 16 g ai/ha) | Plant response rating, Chickweed (common chickweed; Preemergence, 31 g ai/ha) | Plant response rating, Soybean (soybean; 31 g ai/ha) | Plant response rating, Soybean (soybean; 62 g ai/ha) | Plant response rating, Soybean (soybean; 125 g ai/ha) | Plant response rating, Soybean (soybean; 250 g ai/ha) | Sowthistle plant response rating (common sowthistle; 62 g ai/ha, Preemergence) | Plant response rating, Sowthistle (common sowthistle; Preemergence, 31 g ai/ha) | also measured
Cn1nc(C(F)(F)F)c(CS(=O)(=O)c2cccc[n+]2[O-])c1OC(F)F [Compound 4] | 90 | 90 | 100 | 100 | 100 | 0 | 0 | 100 | 60 | 100 | 100 | 100 | 0 | 10 | 15 | 15 |  |  | Russian Thistle plant response rating (Russian thistle; 62 g ai/ha, Preemergence): 100
Cc1cc[n+]([O-])c(S(=O)(=O)C(C)c2c(C(F)(F)F)nn(C)c2Cl)c1 (racemic) [Compound 14] |  | 0 | 75 | 100 | 100 |  |  |  |  |  |  |  | 0 | 0 | 0 | 0 |  |  | 
Cc1cc[n+]([O-])c(S(=O)(=O)C(Cl)c2c(C(F)(F)F)nn(C)c2Cl)c1 (racemic) [Compound 22] |  | 100 | 100 | 100 | 100 |  |  |  |  | 100 | 0 | 65 | 0 | 0 | 0 | 0 | 90 | 90 | Sowthistle plant response rating (common sowthistle; 125 g ai/ha, preemergence): 100; Horseweed plant response rating (Canada horseweed; 62 g ai/ha, Preemergence): 0; Horseweed plant response rating (Canada horseweed; 125 g ai/ha, preemergence): 100; Plant response rating, Horseweed (Canada horseweed; Preemergence, 16 g ai/ha): 0; Plant response rating, Horseweed (Canada horseweed; Preemergence, 31 g ai/ha): 0; Russian Thistle plant response rating (Russian thistle; 125 g ai/ha, preemergence): 100; Chickweed plant response rating (common chickweed; 125 g ai/ha, preemergence): 100
Cn1nc(C(F)(F)F)c(C(Cl)S(=O)(=O)c2cccc[n+]2[O-])c1Cl (centres unmarked) [Compound 12] |  | 100 | 100 | 100 | 100 |  |  |  |  |  |  |  | 0 | 0 | 0 | 0 |  |  | 
Cn1nc(C(F)(F)F)c(C[S+]([O-])c2ccc(Cl)c[n+]2[O-])c1OC(F)F (centres unmarked) [Compound 6] | 100 |  |  |  |  | 0 | 0 | 0 | 80 | 100 | 100 | 100 |  |  |  |  | 90 | 50 | Plant response rating, Sowthistle (common sowthistle; 8 g ai/ha, preemergence): 0; Plant response rating, Sowthistle (common sowthistle; 16 g ai/ha, preemergence): 0; Plant response rating (0 to 100), Windgrass (windgrass [2]; 31 g ai/ha): 50; Plant response rating (0 to 100), Windgrass (windgrass [2]; 62 g ai/ha): 98; Plant response rating, Windgrass (windgrass [2]; 125 g ai/ha): 100; Plant response rating, Windgrass (windgrass [2]; 250 g ai/ha): 100; Plant response rating (0 to 100), Chickweed (chickweed): 0; Plant response rating, Chickweed (chickweed; 62 g ai/ha): 40; Plant response rating, Chickweed (chickweed; 125 g ai/ha): 85; Plant response rating, Chickweed (chickweed; 250 g ai/ha): 95; Plant response rating (0 to 100), Barley (winter barley): 0; Plant response rating, Barley (winter barley; 62 g ai/ha): 0; Plant response rating, Barley (winter barley; 125 g ai/ha): 0; Plant response rating, Barley (winter barley; 250 g ai/ha): 0; Plant response rating (0 to 100), Canarygrass (canarygrass): 0; Plant response rating, Canarygrass (canarygrass; 62 g ai/ha): 0; Plant response rating, Canarygrass (canarygrass; 125 g ai/ha): 0; Plant response rating, Canarygrass (canarygrass; 250 g ai/ha): 10
CC(c1c(C(F)(F)F)nn(C)c1OC(F)F)S(=O)(=O)c1cccc[n+]1[O-] (centres unmarked) [Compound 5] | 90 |  |  |  |  | 0 | 0 | 0 | 100 | 100 | 100 | 100 |  |  |  |  | 100 | 100 | Plant response rating, Sowthistle (common sowthistle; 8 g ai/ha, preemergence): 100; Plant response rating, Sowthistle (common sowthistle; 16 g ai/ha, preemergence): 100; Plant response rating (0 to 100), Windgrass (windgrass [2]; 31 g ai/ha): 30; Plant response rating (0 to 100), Windgrass (windgrass [2]; 62 g ai/ha): 60; Plant response rating, Windgrass (windgrass [2]; 125 g ai/ha): 70; Plant response rating, Windgrass (windgrass [2]; 250 g ai/ha): 75; Plant response rating (0 to 100), Chickweed (chickweed): 0; Plant response rating, Chickweed (chickweed; 62 g ai/ha): 0; Plant response rating, Chickweed (chickweed; 125 g ai/ha): 10; Plant response rating, Chickweed (chickweed; 250 g ai/ha): 85; Russian Thistle plant response rating (Russian thistle; 62 g ai/ha, Preemergence): 60; Plant response rating (0 to 100), Barley (winter barley): 0; Plant response rating, Barley (winter barley; 62 g ai/ha): 0; Plant response rating, Barley (winter barley; 125 g ai/ha): 20; Plant response rating, Barley (winter barley; 250 g ai/ha): 20; Plant response rating (0 to 100), Canarygrass (canarygrass): 0; Plant response rating, Canarygrass (canarygrass; 62 g ai/ha): 0; Plant response rating, Canarygrass (canarygrass; 125 g ai/ha): 0; Plant response rating, Canarygrass (canarygrass; 250 g ai/ha): 0
Cn1nc(C(F)(F)F)c(CS(=O)(=O)c2ccc(Cl)c[n+]2[O-])c1OC(F)F [Compound 7] | 90 | 65 | 100 | 100 | 100 |  |  |  |  |  |  |  | 0 | 0 | 0 | 0 |  |  | 

— patent US20100298141A1, “SUBSTITUTED PYRIDINE N-OXIDE HERBICIDES” (E. I. DU PONT DE NEMOURS AND COMPANY, priority 2007, published 2010)
